The values below are quoted from earlier work in patent US11197823B2, “Topiramate oral liquid suspension and use thereof” (OWP Pharmaceuticals, Inc., priority 2019, dated 2021).

`CC1(C)O[C@@H]2[C@@H](CO[C@@]3(COS(N)(=O)=O)OC(C)(C)O[C@@H]23)O1` [Topiramate, 2,3:4,5-Di-O-isopropylidene-β-D-fructopyranose sulfamate]: the “solubility in organic solvents and alkaline solutions” value (acetone, dimethyl sulfoxide, ethanol, and alkaline solutions containing sodium hydroxide or sodium phosphate) is recorded as “freely soluble”. The solubility in water result (water, room temperature) is on record as “approximately 9.8 mg/mL”.
